# From paper PMC9196629, “Synthesis, Characterization and Antitumor Mechanism Investigation of Heterometallic Ru(Ⅱ)-Re(Ⅰ) Complexes” (Frontiers in Chemistry, 2022)
# What was measured:
# [1] = tested on: A549 (human lung cancer cells); experiment: MTT cytotoxicity assay; type: cell-based; conditions: 48 h incubation, mean ± SD
# Experimental: (§1) The anticancer activities of RuRe-1 and RuRe-2 against four cancer cell lines: HeLa (human cervical cancer cells), HepG2 (human hepatocellular carcinoma), A549 (human lung cancer cells), A549R (cisplatin-resistant A549) and one normal cell line LO2 (human normal liver cells) were determined by 3-(4,5-dimethylthiazole)-2,5-diphenyltetraazolium bromide (MTT) assay, while the mononuclear complexes Ru-1, Ru-2, Re-1 and cisplatin were selected as controls. […] And the in vitro antiproliferative efficacies of the compounds against HeLa cells were in the following order: RuRe-2 > RuRe-1 > Re-1 > cisplatin > Ru-1 > Ru-2. […] The anticancer activity of the mononuclear rhenium complex Re-1 was between 5.6 μM and 8.0 μM, which contributed the most to the antitumor activities of the heteronuclear Ru(II)-Re(Ⅰ) metal complexes.
# (§2) Cell lines and culture conditions. HeLa, HepG2, A549, A549R and LO2 cells were purchased from Nanjing KeyGen Biotech., and cultured in DMEM or RPMI 1640 complete medium at 37 ℃ with 5% CO2 atmosphere.
# (§3) In vitro cytotoxicity assay. The anti-tumor activity of mononuclear complexes Ru-1, Ru-2, Re-1 and heteronuclear RuRe-1 and RuRe-2 were determined by MTT (5 mg/mL) assay. Cells were placed in 96-well plates and cultured for 24 h at 37 ℃ in a 5% CO2 incubator. After replacing the culture medium with fresh medium containing RuRe-1 or RuRe-2 at the indicated concentration, cells were cultured for 48 h. 20 μL MTT was added to each well 4 h before the end of the incubation. Subsequently, the liquid in the cell wells was poured out and 150 μL/well DMSO was added to dissolve the MTT-formazan crystals. The absorbance of living cells at 570 nm was detected.
# [2] = tested on: HeLa (human cervical cancer cells); experiment: MTT cytotoxicity assay; type: cell-based; conditions: 48 h incubation, mean ± SD
# Experimental: as §1, §2, §3
# [3] = tested on: HepG2 (human hepatocellular carcinoma); experiment: MTT cytotoxicity assay; type: cell-based; conditions: 48 h incubation, mean ± SD
# Experimental: as §1, §2, §3
# [4] = tested on: LO2 (human normal liver cells); experiment: MTT cytotoxicity assay; type: cell-based; conditions: 48 h incubation, mean ± SD
# Experimental: as §1, §2, §3
# [5] = tested on: A549R (cisplatin-resistant A549); experiment: MTT cytotoxicity assay; type: cell-based, human; conditions: MTT, 48 h incubation, mean ± SD
# Experimental: as §1, §2, §3
# [6] = tested on: HeLa, HepG2, A549, A549R cancer cell lines; experiment: MTT cytotoxicity assay, summary over the cell lines screened; type: cell-based, human; conditions: 48 h
# Experimental: as §1
# as §3, with “Subsequently, the liquid in the cell wells was poured out and 150 μL/well DMSO was added to dissolve the MTT-formazan crystals.” left out
Compound,IC50 [1],IC50 [2],IC50 [3],IC50 [4],IC50 [5],antitumor activity against all cancer cell lines screened [6]
"N.N.[Cl][Pt][Cl] [Cisplatin, reference compound]",25.9 ± 0.8 µM,19.3 ± 0.5 µM,23.5 ± 2 µM,22.5 ± 2 µM,90.3 ± 0.3 µM,–
"F[P-](F)(F)(F)(F)F.F[P-](F)(F)(F)(F)F.[Ru+2].c1ccc(-c2ccccn2)nc1.c1ccc(-c2ccccn2)nc1.c1cnc2c(c1)c1nc(-c3ccncc3)[nH]c1c1cccnc12 [Ru-1, reference compound]",> 50 µM,39.8 ± 0.6 µM,> 50 µM,> 50 µM,> 50 µM,negligible antitumor activity
F[P-](F)(F)(F)(F)F.F[P-](F)(F)(F)(F)F.c1cc2ccc3ccc[n+]4c3c2[n+](c1)[Ru-4]412([n+]3cccc4ccc5ccc[n+]1c5c43)[n+]1cccc3c4nc(-c5ccncc5)[nH]c4c4ccc[n+]2c4c31 [Ru-2],> 50 µM,43.6 ± 1.2 µM,> 50 µM,> 50 µM,> 50 µM,negligible antitumor activity
